Experimental data taken from patent US20250282799A1, “SUBSTITUTED PYRIDO[4,3-d]PYRIMIDINES AS KRAS MODULATORS” (Alterome Therapeutics, Inc., priority 2023, published 2025).
pIC50: −log10 of the molar value.

The compounds below were run on KRAS G12V dependent lung adenocarcinoma cell line, NCI-H441 (assay: Cellular pERK (Thr202/Tyr204) FRET/HTRF assay). Details: Homo sapiens, NCI-H441, cellular pERK (Thr202/Tyr204) HTRF, NCI-H441 cells.
Format: cell-based
Summary of the method: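 Read-out is a wash-free FRET sandwich immunoassay for endogenous ERK1/2 phosphorylated on Thr202/Tyr204. Signal was measured in NCI-H441 lung adenocarcinoma cells after 1 hr compound exposure at 37 °C. IC50 values come from fitted concentration-response curves.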

Row | pIC50 | SMILES
1 | > 7.30 | [2H]C([2H])(Oc1nc(N2CCOC[C@H]3[C@H](F)[C@H]32)c2cnc(-c3nc(N)cc4ccc(F)c(C#C)c34)c(F)c2n1)[C@@]12CCCN1C[C@H](F)C2 [Example 154]
2 | 5.00 to 6.30 | [2H]C([2H])(Oc1nc(N2CCOCC3C2C3(Cl)Cl)c2cnc(-c3cc(N)cc4ccc(F)c(C#C)c34)c(F)c2n1)[C@@]12CCCN1C[C@H](F)C2 (stereo partly drawn) [Example 240, 4-(4-(8,8-dichloro-5-oxa-2-azabicyclo[5.1.0]octan-2-yl)-8-fluoro-2-(((2R,7aS)-2-fluorotetrahydro-1H-pyrrolizin-7a(5H)-yl)methoxy-d2)pyrido[4,3-d]pyrimidin-7-yl)-5-ethynyl-6-fluoronaphthalen-2-amine]
3 | 6.30 to 7.30 | [2H]C([2H])(Oc1nc(N2CC[C@@H](C#N)C[C@@H]3[C@H](F)[C@@H]32)c2cnc(-c3cc(N)cc4ccc(F)c(C#C)c34)c(F)c2n1)[C@@]12CCCN1C[C@H](F)C2 [Example 311, (1R,5S,7S,8S)-2-(7-(3-amino-8-ethynyl-7-fluoronaphthalen-1-yl)-8-fluoro-2-(((2R,7aS)-2-fluorotetrahydro-1H-pyrrolizin-7a(5H)-yl)methoxy-d2)pyrido[4,3-d]pyrimidin-4-yl)-8-fluoro-2-azabicyclo[5.1.0]octane-5-carbonitrile]
4 | > 7.30 | [2H]C([2H])(Oc1nc(N2CCOC[C@H]3[C@H](F)[C@H]32)c2cnc(-c3cc(N)cc4ccc(C)c(C#C)c34)c(F)c2n1)[C@@]12CCCN1C[C@H](F)C2 [Example 331, 5-Ethynyl-4-(8-fluoro-4-((1S,7S,8S)-8-fluoro-5-oxa-2-azabicyclo[5.1.0]octan-2-yl)-2-(((2R,7aS)-2-fluorotetrahydro-1H-pyrrolizin-7a(5H)-yl)methoxy-d2)pyrido[4,3-d]pyrimidin-7-yl)-6-methylnaphthalen-2-amine]
5 | > 7.30 | [2H]C([2H])(Oc1nc(N2CCOC[C@H]3[C@H](F)[C@H]32)c2cnc(-c3cc(N)cc4ccc(F)c(C#C)c34)c(F)c2n1)[C@@]12CCCN1C[C@@H](Cl)C2 (single isomer, unassigned) [Example 237]
6 | > 7.30 | C#Cc1c(F)ccc2cc(N)cc(-c3ncc4c(N5CCOC[C@H]6[C@H](F)[C@H]65)nc(OC[C@@]56CCCN5C[C@H](C)C6)nc4c3F)c12 (single isomer, unassigned) [Example 208]
7 | > 7.30 | [2H]C([2H])(Oc1nc(N2CCOC[C@H]3[C@H](F)[C@H]32)c2cnc(-c3cc(N)cc4ccc(F)c(C#C)c34)c(F)c2n1)[C@@]12CCCN1C[C@@H](CF)C2 (single isomer, unassigned) [Example 265]

The next lines start with the compound.

Row | SMILES | pIC50
8 | [2H]C1([2H])CC2(CC2)[C@]2(C([2H])([2H])Oc3nc(N4CCOC[C@H]5[C@H](F)[C@H]54)c4cnc(-c5cc(N)cc6ccc(F)c(C#C)c56)c(F)c4n3)C[C@@]([2H])(F)CN12 (single isomer, unassigned) [Example 205] | > 7.30
9 | C#Cc1c(F)ccc2cc(N)cc(-c3ncc4c(N5CCOC[C@H]6[C@H](F)[C@H]65)nc(OC[C@]56C/C(=C/F)CN5CCC65CC5)nc4c3F)c12 [Example 363, 5-Ethynyl-6-fluoro-4-(8-fluoro-4-((1S,7S,8S)-8-fluoro-5-oxa-2-azabicyclo[5.1.0]octan-2-yl)-2-(((R,Z)-6′-(fluoromethylene)tetrahydrospiro[cyclopropane-1,1′-pyrrolizin]-7a′(5′H)-yl)methoxy)pyrido[4,3-d]pyrimidin-7-yl)naphthalen-2-amine] | > 7.30
10 | [2H]C([2H])(Oc1nc(N2CCOC[C@H]3[C@H](Cl)[C@H]32)c2cnc(-c3cccc4ccc(Cl)c(C#C)c34)c(F)c2n1)[C@@]12CCCN1C[C@H](F)C2 [Example 320, (1S,7S,8S)-8-chloro-2-(7-(7-chloro-8-ethynylnaphthalen-1-yl)-8-fluoro-2-(((2R,7aS)-2-fluorotetrahydro-1H-pyrrolizin-7a(5H)-yl)methoxy-d2)pyrido[4,3-d]pyrimidin-4-yl)-5-oxa-2-azabicyclo[5.1.0]octane] | > 7.30
11 | C#Cc1c(F)ccc2cc(N)cc(-c3ncc4c(N5CCOC[C@H]6[C@H](F)[C@H]65)nc(OC[C@]56C/C(=C\F)CN5CCC65CC5)nc4c3C)c12 [Example 430, 5-ethynyl-6-fluoro-4-(4-((1S,7S,8S)-8-fluoro-5-oxa-2-azabicyclo[5.1.0]octan-2-yl)-2-(((R,E)-6-(fluoromethylene)tetrahydrospiro[cyclopropane-1,1′-pyrrolizin]-7a′(5′H)-yl)methoxy)-8-methylpyrido[4,3-d]pyrimidin-7-yl)naphthalen-2-amine] | > 7.30
12 | C#Cc1c(F)ccc2cccc(-c3ncc4c(N5CCOC[C@H]6[C@H](F)[C@H]65)nc(OC[C@]56C/C(=C/F)CN5CCC65CC5)nc4c3F)c12 [Example 376, (1S,7S,8S)-2-(7-(8-Ethynyl-7-fluoronaphthalen-1-yl)-8-fluoro-2-(((R,Z)-6′-(fluoromethylene)tetrahydrospiro[cyclopropane-1,1′-pyrrolizin]-7a′(5′H)-yl)methoxy)pyrido[4,3-d]pyrimidin-4-yl)-8-fluoro-5-oxa-2-azabicyclo[5.1.0]octane] | > 7.30
13 | [2H]C([2H])(F)Oc1c(F)ccc2cc(N)cc(-c3ncc4c(N5CCOC[C@H]6[C@H](F)[C@H]65)nc(OC[C@@]56CCCN5CC(=C)C6)nc4c3F)c12 [Example 189, 6-fluoro-4-(8-fluoro-4-((1S,7S,8S)-8-fluoro-5-oxa-2-azabicyclo[5.1.0]octan-2-yl)-2-(((S)-2-methylenetetrahydro-1H-pyrrolizin-7a(5H)-yl)methoxy)pyrido[4,3-d]pyrimidin-7-yl)-5-(fluoromethoxy-d2)naphthalen-2-amine] | > 7.30
14 | Nc1cc(Cl)c(C(F)(F)F)c(-c2ncc3c(N4CCCC[C@@H]5[C@@H](F)[C@@H]54)nc(OC[C@@]45CCCN4C/C(=C/F)C5)nc3c2F)c1 [Example 372, 3-chloro-5-(8-fluoro-4-((1R,7S,8R)-8-fluoro-2-azabicyclo[5.1.0]octan-2-yl)-2-(((S,E)-2-(fluoromethylene)tetrahydro-1H-pyrrolizin-7a(5H)-yl)methoxy)pyrido[4,3-d]pyrimidin-7-yl)-4-(trifluoromethyl)aniline] | 5.00 to 6.30

Same assay, conditions: Homo sapiens, NCI-H441, cellular pERK HTRF, NCI-H441 (KRAS G12V) cells

Row | SMILES | pIC50
15 | [2H]C([2H])(Oc1nc(N2CCCC[C@H]3[C@H](F)[C@H]32)c2cnc(-c3cc(N)cc4ccc(F)c(C#C)c34)c(C)c2n1)[C@@]12CCCN1C[C@H](F)C2 [Example 460, 5-Ethynyl-6-fluoro-4-(4-((1S,7R,8S)-8-fluoro-2-azabicyclo[5.1.0]octan-2-yl)-2-(((2R,7aS)-2-fluorotetrahydro-1H-pyrrolizin-7a(5H)-yl)methoxy-d2)-8-methylpyrido[4,3-d]pyrimidin-7-yl)naphthalen-2-amine] | > 7.30

Same assay, conditions: Homo sapiens, NCI-H441, pERK HTRF, NCI-H441 cells (KRAS G12V)

Row | SMILES | pIC50
16 | [2H]C([2H])(Oc1nc(N2CCCC[C@H]3[C@H](F)[C@H]32)c2cnc(-c3cc(N)cc4cc(F)c(F)c(OC(F)F)c34)c(F)c2n1)[C@@]12CCCN1C[C@H](F)C2 [Example 67, 5-(Difluoromethoxy)-6,7-difluoro-4-(8-fluoro-4-((1S,7R,8S)-8-fluoro-2-azabicyclo[5.1.0]octan-2-yl)-2-(((2R,7aS)-2-fluorotetrahydro-1H-pyrrolizin-7a(5H)-yl)methoxy-d2)pyrido[4,3-d]pyrimidin-7-yl)naphthalen-2-amine] | > 7.30
17 | [2H]C([2H])(Oc1nc(N2CCCO[C@H]3[C@H](F)[C@H]32)c2cnc(-c3cccc4cc(F)c(F)c(C#C)c34)c(F)c2n1)[C@@]12CCCN1C[C@H](F)C2 [Example 76, (1R,7S,8R)-6-(7-(8-Ethynyl-6,7-difluoronaphthalen-1-yl)-8-fluoro-2-(((2R,7aS)-2-fluorotetrahydro-1H-pyrrolizin-7a(5H)-yl)methoxy-d2)pyrido[4,3-d]pyrimidin-4-yl)-8-fluoro-2-oxa-6-azabicyclo[5.1.0]octane] | > 7.30
18 | [2H]C([2H])(Oc1nc(N2CCOC[C@H]3[C@@H]2C3(F)F)c2cnc(-c3cc(N)cc4cc(F)c(F)c(C#C)c34)c(F)c2n1)[C@@]12CCCN1C[C@H](F)C2 [Example 20, 4-(4-((1R,7R)-8,8-Difluoro-5-oxa-2-azabicyclo[5.1.0]octan-2-yl)-8-fluoro-2-(((2R,7aS)-2-fluorotetrahydro-1H-pyrrolizin-7a(5H)-yl)methoxy-d2)pyrido[4,3-d]pyrimidin-7-yl)-5-ethynyl-6,7-difluoronaphthalen-2-amine] | 5.00 to 6.30

Same assay, conditions: cellular pERK HTRF, NCI-H441 (KRAS G12V) cells

Row | SMILES | pIC50
19 | N#Cc1c(N)sc2c(F)ccc(-c3c(C(F)(F)F)cc4c(N5CCOC[C@H]6[C@H](F)[C@H]65)nc(OC[C@@]56CCCN5CC(=C(F)F)C6)nc4c3F)c12 (atropisomer, axis not shown) [Example 439, 2-amino-4-((S)-2-(((S)-2-(difluoromethylene)tetrahydro-1H-pyrrolizin-7a(5H)-yl)methoxy)-8-fluoro-4-((1S,7S,8S)-8-fluoro-5-oxa-2-azabicyclo[5.1.0]octan-2-yl)-6-(trifluoromethyl)quinazolin-7-yl)-7-fluorobenzo[b]thiophene-3-carbonitrile] | > 7.30
20 | [2H]C([2H])(Oc1nc(N2CCOC[C@H]3[C@H](F)[C@H]32)c2cc(F)c(-c3ccc(F)c4sc(N)c(C#N)c34)c(C)c2n1)[C@@]12CCCN1C[C@H](F)C2 (atropisomer, axis not shown; (aS)) [Example 451, 2-amino-7-fluoro-4-((R)-6-fluoro-4-((1S,7S,8S)-8-fluoro-5-oxa-2-azabicyclo[5.1.0]octan-2-yl)-2-(((2R,7aS)-2-fluorotetrahydro-1H-pyrrolizin-7a(5H)-yl)methoxy-d2)-8-methylquinazolin-7-yl)benzo[b]thiophene-3-carbonitrile] | > 7.30
